Laboratory results: patent publication US9758412B2, “Device for purifying liquid wastewater, and method for cleaning liquid wastewater using said device” (CENTRE NATIONAL DE LA RECHERCHE SCIENTIFIQUE (C.N.R.S.), priority 2012, dated 2017)

Columns and labels:
[1] = system: Xenopus larvae; details: cyclophosphamide 20 mg/L in river water; compared with negative control T(−) and sanitized water D8
[2] = system: Xenopus larvae; details: stage 50 to 54, devices: diuron-spiked tank water after 10 days of circulation, T(+): cyclophosphamide 20 mg/L in river water
Protocol: The mass of Tubifex tubifex worms is of the order of 500 mg (fresh weight) per sanitizing device and is representative of the average density of these oligochaete worms in the natural environment (56 000 oligochaete worms/m^2 of river).
The acute toxicity of the sanitized water is measured by incubating Xenopus larvae, selected at a stage of development of 50 to 54 […], for a period of 12 days with said sanitized water on larvae. This measurement permits observation of the signs of intoxication of the larvae induced by exposure to the water obtained at the outlet of the sanitizing device at the end of treatment.

**Q.** O=P1(N(CCCl)CCCl)NCCCO1 (stereo not drawn) [T(+), cyclophosphamide] was tested. Which “Genotoxicity (induction of micronuclei)” value [1] did it give?
**A.** Its value is “confirmed genotoxicity”.

**Q.** What about the “Toxicity, 1 to 5 days” value [2] of the same molecule?
**A.** Its value is “Lethal”.

**Q.** And the “Toxicity, 5 to 12 days” value [2]?
**A.** The value was “Lethal”.
